Data on one sequence can be found in US20120269815A1, “NEUROTROPHINS AND USES THEREOF” (Regents of the University of Minnesota, priority 2008, published 2012).

No end group written: not given here.

Assay [1] in a line: Shock sensitization of startle after ICV TUF1 peptide infusion. In kind it is in vivo, rat. The following applies: adult male rats, 1.0 μg or 10 μg ICV. As for the experimental part:
(§1) a) Intra-cerebroventricular (ICV) Cannulation Male Sprague-Dawley rats weighing 250-400 grams were anesthetized with ketamine (100 mg/kg) and xylazine (7 mg/kg) and placed in a stereotaxic device (David Kopf Instruments Corp., Tunjunga, Calif.) using atraumatic ear bars. An incision of the skin overlying the skull was made and anchor screws were inserted into the skull. Burr holes were drilled to allow the guide cannula to pass into the brain. The guide cannula (22-gauge, C313G; Plastics One, Roanoke, Va.) was placed at 0 mm posterior, 1.2 mm lateral and 3.5 mm ventral to bregma. The cannula was affixed using epoxy glue (Loctite 444; McMaster-Carr, Chicago, Ill.) followed by dental acrylic (Hygienic perm reline & repair resin, Type II, Class I; Henry Schein, Inc., Melville, N.Y.). The cannula was sealed and kept open by insertion of a ‘dummy’ cannula. […]
(§2) For fear potentiated startle, shock sensitization, and prepulse inhibition testing, animals were trained and tested in four identical 7.5 cm×9 cm×17 cm stabilimeter devices. […] Shock intensity was measured with a 1-kΩ resistor across a differential channel of an oscilloscope in series with a 100-kΩ resistor connected between two floor bars in each cage. Current was defined as the RMS voltage across the resistor and calculated in mA as 0.707×0.5 ×peak-to-peak voltage. […]

The nature of assay [2]: Food consumption after ICV TUF1 peptide infusion. In kind it is in vivo. The settings on record: rat, ICV administration. As for the experimental part:
a) Intra-cerebroventricular (ICV) Cannulation Male Sprague-Dawley rats weighing 250-400 grams were anesthetized with ketamine (100 mg/kg) and xylazine (7 mg/kg) and placed in a stereotaxic device (David Kopf Instruments Corp., Tunjunga, Calif.) using atraumatic ear bars. An incision of the skin overlying the skull was made and anchor screws were inserted into the skull. Burr holes were drilled to allow the guide cannula to pass into the brain. The guide cannula (22-gauge, C313G; Plastics One, Roanoke, Va.) was placed at 0 mm posterior, 1.2 mm lateral and 3.5 mm ventral to bregma. The cannula was affixed using epoxy glue (Loctite 444; McMaster-Carr, Chicago, Ill.) followed by dental acrylic (Hygienic perm reline & repair resin, Type II, Class I; Henry Schein, Inc., Melville, N.Y.). The cannula was sealed and kept open by insertion of a ‘dummy’ cannula.
b) TUF1 Peptide Infusion 0 μg, 1 μg, or 10 μg TUF1 peptide diluted in artificial cerebrospinal fluid (aCSF, Harvard Apparatus, Holliston, Mass.) was injected into the brain through the in-dwelling cannulae immediately prior to behavioral measurement (described below). […]
Food intake, in grams, was measured by weighing food in the hopper daily for the two days prior to drug infusion and for the drug infusion days, and calculating the amount eaten by subtracting each day's food weight from that of the previous day.

The next assay concerns GT1-1 cells. The settings on record: 24 hr serum deprivation, 3.6 μM peptide.
Assay [3] in a line: Prepulse inhibition of startle after ICV TUF1 peptide infusion. In kind it is in vivo, rat. The following applies: adult male rats, 1.0 μg or 10 μg ICV. As for the experimental part:
as §1, §2

Description for GT1-1 cells: GT1-1 cell survival assays: GT1-1 cells are immortalized cell line derived from mouse embryonic hypothalamus (a gift from Dr. Richard Weiner, UCSF).
a) Suppression of TUF1 expression by RNAi GT1-1 cells were seeded at 100,000 cells/well in a 12-well plate (as described in Example 1) and incubated for 72 hours at 37° C. supplemented with 5% CO2. Fresh growth media were added for at least 1 hour before cells were transfected with negative control RNAi or TUF1-specific RNAi (150 picomoles diluted in OptiMEM, Stealth RNAi, Invitrogen Corp., Carlsbad, Calif.) using Fugene6 (1.5 μl/200 μl medium, Roche Diagnostics Corp., Indianapolis, Ind.) and incubated overnight. […] Cells were then lifted from the well by adding Trypsin-EDTA (Invitrogen Corp., Carlsbad, Calif.) and surviving cells were counted by Trypan Blue exclusion using a hemocytometer and an inverted microscope. […]
b) Repression of TUF1 activity by anti-TUF1 peptide antibody (IgG) GT1-1 cells were seeded at 100,000 cells/well and incubated for 72 hours as described above. […] Surviving cells were lifted from wells and counted as described in part (a). […]
Cells were treated with serum-free media supplemented with 0.0 μg/ml, 2.5 μg/ml (1.8 μM), or 5.0 μg/m (3.6 μM) TUF1 peptide. Surviving cells were counted at 24 hours, 48 hours, and 72 hours of incubation as described in part (a). […]

Turning to AYKSYVRALPLL [TUF1[43-54]], the shock sensitization entry in assay [1] is reported as “No effect”. Moreover, the food consumption entry in assay [2] is on record as “influences food consumption”. The “effect on cell survival” value in the assay with GT1-1 cells is on record as “no effect”. Moreover, the pre-pulse inhibition entry in assay [3] is listed as “No effect”.
